US12389905B2, “Synergistic mixture of plant defense inductors” (LIDA PLANT RESEARCH S.L., priority 2018, dated 2025)
Values joined by “and” are separate entries in the source; they are usually repeats but may differ in a detail not shown here. Equal entries are not always repeated. Where two headings read alike, the source gives them in different places.

Key:
Type in all cases: in vivo
[1] = tested on: PR1 (PATHOGENESIS-RELATED PROTEIN 1) gene; assay: PR1 gene expression (qPCR) in sprayed Arabidopsis thaliana plants
[2] = tested on: Pseudomonas syringae pv. Lachrymans on cucumber; assay: Bacterial spot on cucumber, greenhouse disease control; settings: spray, 100 ppm
Experimental: (§1) The experiments were carried out under controlled greenhouse conditions. The effects of temperature, humidity and light conditions in the greenhouse chambers were adjusted according to host plants and pathogens needs.
(§2) The efficacy or disease control value (W) was calculated according to Abbott's formula: W=(1−x/y)×100 wherein • x=percentage of fungal or bacterial infection in treated plants • y=percentage of fungal or bacterial infection in untreated control plants
(§3) An efficacy of 0 means the infection level of the treated plants corresponds to that of the untreated control plants; and efficacy of 100 means that the treated plants are not infected.
(§4) In order to evaluate if there is a synergistic effect between different possible combinations, Limpel/Colby's formula was used.
(§5) Synergy Factor (F)=OV(A+B)/CEV(A+B) 1. Podosphaera xanthii on Cucumber
1.2-leaf stage cucumber plants (cv. Suzunari-suyo), grown in pots under controlled conditions, were treated by spraying of the leaves with the mixture in question, dispersed in an aqueous solution. After 2 days, plants were inoculated and infected with an aqueous suspension of Pseudomonas syringae pv. Lachrymans (1×10^8 cfu/ml), and they were kept in a growth chamber at 25° C. and 90% RH. 7 days after pathogen inoculation, infection levels were assessed and percentages of disease control and expected values were calculated according to Abbott's and Colby's formulas, respectively.

[3] = tested on: Pyricularia oryzae on rice; settings: soil drench
[4] = tested on: Pseudomonas cannbina pv. alisalensis on Chinese cabbage
[5] = tested on: Colletotrichum orbiculare on cucumber; assay: Anthracnose on cucumber, greenhouse disease control; settings: spray; 100 ppm
[6] = tested on: Podosphaera xanthii on cucumber; assay: Powdery mildew on cucumber, greenhouse disease control; settings: Test 3 (soil drench treatment); 100 ppm
Experimental: as §1, §2, §3, §4, §5
1.2-leaf stage cucumber plants (cv. Suzunari-suyo), grown in pots under controlled conditions, were treated by spraying of the leaves or by soil drenching with the mixture in question, dispersed in an aqueous solution. Plants were kept in a growth chamber at 25° C. and 80% RH. After 7 days, plants were inoculated and infected with a spore suspension of Podosphaera xanthii, and, 10 days after pathogen inoculation, infection levels were assessed and percentages of disease control and expected values were calculated according to Abbott's and Colby's formulas, respectively.

[7] = tested on: Phakopsora pachyrhizi on soybean; assay: Asian rust on soybean, greenhouse disease control; settings: B alone 100 ppm, leaf spray
Experimental: as §1, §2, §3
In order to evaluate if there is a synergistic effect between different possible combinations, Limpel/Colby's formula was used. This formula is used to calculated the expected disease control value of combinations containing two active ingredients, A and B: Expected (E)=A+B−(A×B/100) wherein, • A=observed disease control value of component A, at the same concentration as used in the mixture • B=observed disease control value of component B, at the same concentration as used in the mixture
When the disease control value found experimentally (observed) with the combination is greater than the value of E, said activity should be considered as being a synergistic effect, and Synergy Factor (F) is >1: Synergy Factor (F)=Observed disease control value/Expected disease control value (E)
As above, in the following Tables: • OV: Observed control value • CEV: Colby expected control value with the mixture [CEV=A+B−(A×B/100)] Synergy Factor (F)=OV(A+B)/CEV(A+B) 1. Podosphaera xanthii on Cucumber
1.5-leaf stage soybean plants (cv. Tsurunoko-daizu), grown in pots under controlled conditions, were treated by spraying of the leaves with the mixture in question, dispersed in an aqueous solution. After 7 days, plants were inoculated and infected with a spore suspension of Phakopsora pachyrhizi(1×10^6 uredospores/ml), and they were kept in a growth chamber at 25° C. and 90% RH. 10 days after pathogen inoculation, infection levels were assessed and percentages of disease control and expected values were calculated according to Abbott's and Colby's formulas, respectively.

CSC(=O)c1cccc2nnsc12 [Acibenzolar-S-methyl, acibenzolar-S-methyl]
PR1 gene activation OV A or B (single component) ([1]; 37.5 ppm, 24 hpt): 32.19 n-fold | PR1 gene activation OV A or B (single component) ([1]; 37.5 ppm, 48 hpt): 72.31 n-fold | Percentage of disease control OV A or B (single component) ([2]; Test 4): 86% | Percentage of disease control B ([3]; Test 2, B alone 4 ppm): 29% | Percentage of disease control B ([3]; Test 2, B alone 10 ppm): 49% | Percentage of disease control B ([3]; Test 2, B alone 20 ppm): 87% | Percentage of disease control B ([3]; Test 2, B alone 40 ppm): 83% | Percentage of disease control B ([3]; Test 2, B alone 100 ppm): 70% | Percentage of disease control B ([3]; Test 3, B alone 100 ppm): 71% | Percentage of disease control B ([3]; Test 4, B alone 100 ppm): 71% | Percentage of disease control B ([4]; Combinations with Carrageenan, Test 1, B alone 100 ppm, leaf spray): 85% | Percentage of disease control B ([4]; Combinations with Chitooligosaccharides, Test 2, B alone 4 ppm, leaf spray): 5% | Percentage of disease control B ([4]; Combinations with Chitooligosaccharides, Test 2, B alone 10 ppm, leaf spray): 18% | Percentage of disease control B ([4]; Combinations with Chitooligosaccharides, Test 2, B alone 20 ppm, leaf spray): 12% | Percentage of disease control B ([4]; Combinations with Chitooligosaccharides, Test 2, B alone 40 ppm, leaf spray): 84% | Percentage of disease control B ([4]; Combinations with Chitooligosaccharides, Test 2, B alone 100 ppm, leaf spray): 89% | Percentage of disease control B ([4]; Combinations with Chitooligosaccharides, Test 3, B alone 10 ppm, leaf spray): 35% | Percentage of disease control B ([4]; Combinations with Chitooligosaccharides, Test 3, B alone 20 ppm, leaf spray): 17% | Percentage of disease control B ([4]; Combinations with Chitooligosaccharides, Test 3, B alone 40 ppm, leaf spray): 95% | Percentage of disease control B ([4]; Combinations with Chitooligosaccharides, Test 3, B alone 100 ppm, leaf spray): 98% | Percentage of disease control OV A or B (single component) [5]: 92%

C=CCOC1=NS(=O)(=O)c2ccccc21 [Probenazole]
PR1 gene activation OV A or B (single component) ([1]; 100 ppm, 48 hpt): 102.9 n-fold and 102.90 n-fold | Percentage of disease control OV A or B (single component) [6]: 0% | Percentage of disease control OV A or B (single component) ([2]; Test 2): 45% | Percentage of disease control OV A or B (single component) ([2]; Test 3): 45% | Percentage of disease control B ([3]; Test 3, B alone 100 ppm): 71% | Percentage of disease control B ([3]; Test 4, B alone 100 ppm): 71% | Percentage of disease control OV A or B (single component) ([4]; 100 ppm): 25% | Percentage of disease control B ([4]; in vivo): 25% | Percentage of disease control B ([7]; Combinations with Chitooligosaccharides): 7% | Percentage of disease control B ([7]; Combinations with Laminarin): 7%
